Test results as given in PMC4619459, “Metabolism of β-valine via a CoA-dependent ammonia lyase pathway” (Applied Microbiology and Biotechnology, 2015).

How the values were obtained:
Type in all cases: biochemical
BvaB1-His [1] = target: T1, BvaB1-His (Pseudomonas sp. SBV1, UniProt A0A0C4UTI5); experiment: UPLC-MS (m/z […]) and HPLC; settings: substrate made in situ by BvaA-His, not purified; 50 mM HEPES, 150 mM NaCl, 5 mM MgCl2, pH 8
T1 sequence (A0A0C4UTI5 1-253): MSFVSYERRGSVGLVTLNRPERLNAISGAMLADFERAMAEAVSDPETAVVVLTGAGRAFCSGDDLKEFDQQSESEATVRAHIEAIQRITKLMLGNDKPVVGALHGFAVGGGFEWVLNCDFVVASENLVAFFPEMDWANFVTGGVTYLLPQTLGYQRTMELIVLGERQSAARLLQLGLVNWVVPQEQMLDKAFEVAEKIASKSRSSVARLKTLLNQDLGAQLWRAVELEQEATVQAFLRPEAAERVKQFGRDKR

BvaB2-His [2] = target: T2, BvaB2-His (Pseudomonas sp. SBV1, UniProt A0A0C4USU5); experiment: UPLC-MS (m/z […]) and HPLC; settings: substrate made in situ by BvaA-His, not purified; 50 mM HEPES, 150 mM NaCl, 5 mM MgCl2, pH 8
T2 sequence (A0A0C4USU5 1-266): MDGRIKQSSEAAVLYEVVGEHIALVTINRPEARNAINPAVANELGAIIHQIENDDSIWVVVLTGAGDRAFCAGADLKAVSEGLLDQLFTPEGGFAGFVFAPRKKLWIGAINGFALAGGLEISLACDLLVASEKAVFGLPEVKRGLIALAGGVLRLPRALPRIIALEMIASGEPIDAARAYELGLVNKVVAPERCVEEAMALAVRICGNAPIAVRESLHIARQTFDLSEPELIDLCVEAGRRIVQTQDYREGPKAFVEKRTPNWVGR

BvaA-His [3] = target: T3, BvaA-His (Pseudomonas sp. SBV1, UniProt A0A0C4UT64); experiment: HPLC of AMP formation; settings: 2.5 mM β-valine, 2.5 mM CoA, 5 mM MgCl2, 50 mM HEPES, 150 mM NaCl, pH 8, 30 °C
BvaA-His [4] = target: T3, BvaA-His; experiment: UPLC-MS of CoA adduct; HPLC of AMP formation; settings: 5 mM ATP, 2.5 mM CoA, 5 mM MgCl2, 50 mM HEPES, 150 mM NaCl, pH 8, 30 °C
BvaB1-His [5] = target: T1, BvaB1-His; experiment: HPLC of substrate depletion; UPLC-MS; settings: substrate made in situ by BvaA-His, not purified; 50 mM HEPES, 150 mM NaCl, 5 mM MgCl2, pH 8
BvaB2-His [6] = target: T2, BvaB2-His; experiment: HPLC of substrate depletion; UPLC-MS; settings: substrate made in situ by BvaA-His, not purified; 50 mM HEPES, 150 mM NaCl, 5 mM MgCl2, pH 8

T3 sequence (A0A0C4UT64 entry or part of it): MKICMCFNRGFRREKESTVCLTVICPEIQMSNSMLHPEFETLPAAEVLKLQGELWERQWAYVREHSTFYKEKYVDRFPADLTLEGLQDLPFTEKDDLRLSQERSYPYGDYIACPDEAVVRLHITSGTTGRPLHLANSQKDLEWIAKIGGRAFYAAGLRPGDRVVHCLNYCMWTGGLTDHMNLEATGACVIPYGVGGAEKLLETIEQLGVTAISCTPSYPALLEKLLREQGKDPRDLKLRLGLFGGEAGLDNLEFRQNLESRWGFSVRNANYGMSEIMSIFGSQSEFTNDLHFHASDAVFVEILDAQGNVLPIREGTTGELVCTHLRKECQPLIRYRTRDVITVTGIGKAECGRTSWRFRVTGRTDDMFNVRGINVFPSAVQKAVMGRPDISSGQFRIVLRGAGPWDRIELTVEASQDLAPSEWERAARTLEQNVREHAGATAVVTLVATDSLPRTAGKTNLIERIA

For `CC(C)=CC(=O)SCCNC(=O)CCNC(=O)[C@H](O)C(C)(C)COP(=O)(O)OP(=O)(O)OC[C@H]1O[C@@H](n2cnc3c(N)ncnc32)[C@H](O)[C@@H]1OP(=O)(O)O` [3-methyl-crotonyl-CoA], the “UPLC-MS (m/z 849) and HPLC” value (BvaB1-His [1]) was “This parent ion was observed in a mixture containing either BvaB1-His or BvaB2-His” and the “UPLC-MS (m/z 849) and HPLC” value (BvaB2-His [2]) was “This parent ion was observed in a mixture containing either BvaB1-His or BvaB2-His”.

With `Nc1ncnc2c1ncn2[C@@H]1O[C@H](COP(=O)(O)OP(=O)(O)OP(=O)(O)O)[C@@H](O)[C@H]1O` [ATP] the “HPLC of AMP formation” value (BvaA-His [3]) was “able to convert β-valine to β-valinyl-CoA in an ATP- and CoA-dependent manner”.

For `CC(C)(N)CC(=O)O` [β-valine], the “UPLC-MS of CoA adduct; HPLC of AMP formation” value (BvaA-His [4]) was “both the β-valinyl-CoA and the AMP levels increased in time”.

With `CC(C)(N)CC(=O)SCCNC(=O)CCNC(=O)[C@H](O)C(C)(C)COP(=O)(O)OP(=O)(O)OC[C@H]1O[C@@H](n2cnc3c(N)ncnc32)[C@H](O)[C@@H]1OP(=O)(O)O` [β-valinyl-CoA] the “HPLC of substrate depletion; UPLC-MS” value (BvaB1-His [5]) was “both expected β-valinyl-CoA ammonia lyases are able to convert β-valinyl-CoA to 3-methyl-crotonyl-CoA” and the “HPLC of substrate depletion; UPLC-MS” value (BvaB2-His [6]) was “both expected β-valinyl-CoA ammonia lyases are able to convert β-valinyl-CoA to 3-methyl-crotonyl-CoA”.
